Data reported in US5665719A, “Benzoxazinone and benzopyrimidinone piperidinyl tocolytic oxytocin receptor antagonists” (Merck & Co., Inc., priority 1995, dated 1997).
Read-outs that look alike come from different tables or passages of the source.

Molecular target: T1, uterine OT receptors (Rattus norvegicus, UniProt P70536)
T1 construct: from tissue; host or cells: uterus of diethylstilbestrol dipropionate (DES)-treated rats, crude membrane preparation
T1 sequence (P70536 1-388): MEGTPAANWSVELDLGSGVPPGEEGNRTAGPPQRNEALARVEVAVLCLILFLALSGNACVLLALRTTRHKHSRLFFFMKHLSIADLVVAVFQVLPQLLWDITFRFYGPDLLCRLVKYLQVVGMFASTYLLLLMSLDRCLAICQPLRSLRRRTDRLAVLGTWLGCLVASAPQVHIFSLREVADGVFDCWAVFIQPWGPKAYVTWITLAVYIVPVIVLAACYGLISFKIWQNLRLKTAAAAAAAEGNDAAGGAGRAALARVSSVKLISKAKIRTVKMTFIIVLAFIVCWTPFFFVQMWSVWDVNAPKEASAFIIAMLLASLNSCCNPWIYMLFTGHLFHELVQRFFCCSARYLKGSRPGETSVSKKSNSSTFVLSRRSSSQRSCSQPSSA
Assay: [3H]Oxytocin (OT) radioligand binding to uterine OT receptors, crude uterine membranes from DES-treated rats
Conditions: for inhibition at 1 µM: inhibition at 1,000 nM, read-out: Result For [3H]OT (% inhib. at 1,000 nM); for inhibition at 1 µM / inhibition at 10 µM: 1 nM [3H]OT, pH 7.4; for inhibition at 10 µM: inhibition at 10,000 nM, read-out: Result For [3H]OT (% inhib. at 10,000 nM)
Description: Competition studies were conducted at equilibrium (60 minutes; 22° C.) using 1 nM[^3 H]OT in the following assay buffer: 50 mM Tris-HCl, 5 mM MgCl2, and 0.1% BSA, pH 7.4. Nonspecific binding (10% of the total binding) was determined using 1 μM unlabeled OT and the binding reaction was terminated by filtration through glass fiber filters using a cell harvester (model 7019, Skatron, Inc., Sterling, Va.).
IC50 values were determined for the [^3 H]OT and [^3 H]AVP binding assays by linear regression of the relation log concentration of compound vs. percent inhibition of specific binding. Data is either reported as a given percentage of inhibition at a specified concentration,or if an IC50 was calculated, as a nanomolar concentration.

| Compound | IC50 [µM] | further results |
| --- | --- | --- |
| CC(C)(C)OC(=O)N1CCC(C(=O)NCCCOc2ccc(C(=O)N3CCC(N4C(=O)OCc5ccccc54)CC3)c(O)c2)CC1 [Example 49, 1-(1-(4-(3-(N-t-Butyloxycarbonylpiperidin-4-ylcarbonylamino)propoxy)-2-hydroxybenzoyl)piperidin-4-yl)-1,2-dihydro-4(H)-3,1-benzoxazin-2-one] |  | inhibition at 1 µM (60 minutes, 22° C.): 72% |
| COc1cc(OCCCNC(=O)C2CCNCC2)ccc1C(=O)N1CCC(N2C(=O)OCc3ccccc32)CC1 [Example 14, 1-(1-(4-(3-(4-Piperidinylcarbonylamino)propoxy)-2-methoxybenzoyl)piperidin-4-yl)-1,2-dihydro-4(H)-3,1-benzoxazin-2-one] | 0.074 |  |
| COc1cc(OCCCN)ccc1C(=O)N1CCC(N2C(=O)OCc3ccccc32)CC1 [Example 12, 1-(1-(4-(3-Aminopropoxy)-2-methoxybenzoyl)piperidin-4-yl)-1,2-dihydro-4(H)-3,1-benzoxazin-2-one] | 0.41 |  |
| O=C(c1ccc(OCC2CCCNC2)cc1)N1CCC(N2C(=O)OCc3ccccc32)CC1 (centres unmarked) [Example 32, 1-(1-(4-(3-Piperidinylmethoxy)benzoyl)piperidin-4-yl)-1,2-dihydro-4(H)-3,1-benzoxazin-2-one] |  | inhibition at 10 µM (60 minutes, 22° C.): 78% |
| COc1cc(OC2CCN(C(=O)CCCN)CC2)ccc1C(=O)N1CCC(N2C(=O)OCc3ccccc32)CC1 [Example 30, 1-(1-(4-(1-(4-Aminobutanoyl)-4-piperidinyloxy)-2-methoxybenzoyl)piperidin-4-yl)-1,2-dihydro-4(H)-3,1-benzoxazin-2-one] | 0.069 |  |
| O=C(Nc1ccc(CC(=O)N2CCC(N3C(=O)OCc4ccccc43)CC2)cc1)c1ccc2[nH]cnc2c1 [Example 9, 1-(1-(4-((5-Benzimidazolylcarbonyl)amino)phenylacetyl)piperidin-4-yl)-1,2-dihydro-4(H)-3,1-benzoxazin-2-one] | 0.28 |  |
| O=C(c1ccc(OC2CCNCC2)cc1Cl)N1CCC(N2C(=O)OCc3ccccc32)CC1 [Example 52, 1-(1-(4-(4-Piperidinyloxy)-2-chlorobenzoyl)piperidin-4-yl)-1,2-dihydro-4(H)-3,1-benzoxazin-2-one] | 4.3 |  |
| COc1ccc(C(=O)N2CCC(N3C(=O)OCc4ccccc43)CC2C#N)c(OC)c1 (centres unmarked) [Example 60, 1-(1-(2,4-dimethoxybenzoyl)-2-cyanopiperidin-4-yl)-1,2-dihydro-4(H)-3,1-benzoxazin-2-one] |  | inhibition at 10 µM (60 minutes, 22° C.): 70% |
| COc1ccc(C(=O)N2CCC(N3C(=O)OCc4ccccc43)CC2)c([N+](=O)[O-])c1 [Example 44, 1-(1-(4-Methoxy-2-nitrobenzoyl)piperidin-4-yl)-1,2-dihydro-4(H)-3,1-benzoxazin-2-one] | 5 |  |
| COc1cc(OC2CCN(C(=O)Cc3cnc[nH]3)CC2)ccc1C(=O)N1CCC(N2C(=O)OCc3ccccc32)CC1 [Example 45, 1-(1-(4-(1-(4(5)-Imidazolylacetyl)-4-piperidinyloxy)-2-methoxybenzoyl)piperidin-4-yl)-1,2-dihydro-4(H)-3,1-benzoxazin-2-one] | 0.044 |  |
| COc1cc(OCCCNS(C)(=O)=O)ccc1C(=O)N1CCC(N2C(=O)OCc3ccccc32)CC1 [Example 17, 1-(1-(4-(3-((Methylsulfonyl)amino)propoxy)-2-methoxybenzoyl)piperidin-4-yl)-1,2-dihydro-4(H)-3,1-benzoxazin-2-one] | 0.081 |  |
| COc1ccc(C(=O)N2CCC(N3C(=O)OC(C)(C)c4ccccc43)CC2)c(OC)c1 [Example 61, 1-(1-(2,4-dimethoxybenzoyl)piperidin-4-yl)-4,4-dimethyl-1,2-dihydro-4(H)-3,1-benzoxazin-2-one] |  | inhibition at 10 µM (60 minutes, 22° C.): 64% |
| Cc1cc(OC2CCN(C(=O)OC(C)(C)C)CC2)ccc1C(=O)N1CCC(N2C(=O)OCc3ccccc32)CC1 [Example 43, 1-(1-(4-(N-t-Butoxycarbonyl-4-piperidinyloxy)-2-methylbenzoyl)piperidin-4-yl)-1,2-dihydro-4(H)-3,1-benzoxazin-2-one] |  | inhibition at 1 µM (60 minutes, 22° C.): 59% |
| COc1cc(OCCCNC(=O)C2CCNCC2)c(Cl)cc1C(=O)N1CCC(N2C(=O)OCc3ccccc32)CC1 [Example 15, 1-(1-(4-(3-(4-Piperidinylcarbonylamino)propoxy)-6-methoxy-3-chlorobenzoyl)piperidin-4-yl)-1,2-dihydro-4(H)-3,1-benzoxazin-2-one] | 0.056 |  |
| O=C(c1ccccn1)N1CCC(N2C(=O)OCc3ccccc32)CC1 [Example 3] |  | inhibition at 10 µM (60 minutes, 22° C.): 40% |
| COc1ccc(C(=O)N2CCC(N3C(=O)N(C)Cc4ccccc43)CC2)c(OC)c1 [Example 36, 1-(2,4-Dimethoxybenzoylpiperidin-4-yl)-3,4-dihydro-3-methylquinazolin-2(1H)-one] |  | inhibition at 10 µM (60 minutes, 22° C.): 48% |
| CCOC(=O)CN1CCC(Oc2ccc(C(=O)N3CCC(N4C(=O)OCc5ccccc54)CC3)c(OC)c2)CC1 [Example 48, 1-(1-(4-(1-(Ethoxycarbonylmethyl)-4-piperidinyloxy)-2-methoxybenzoyl)piperidin-4-yl)-1,2-dihydro-4(H)-3,1-benzoxazin-2-one] | 0.34 |  |
| COc1ccc(C(=O)N2CCC(N3C(=O)OCc4sccc43)CC2)c(OC)c1 [Example 63, 1-(1-(2,4-dimethoxybenzoyl)piperidin-4-yl)-1,2-dihydro-4 (H)-3,1-thienoxazin-2-one] |  | IC50 (competition vs 1 nM [3H]OT, 60 minutes, 22° C., pH 7.4, rat uterus membranes, read-out: Result For [3H]OT (IC50)): 0.59 µM |
| COc1ccc(C(=O)N2CC(N3C(=O)OCc4ccccc43)C2)c(OC)c1 [Example 57, 1-(1-(2,4-Dimethoxybenzoyl)azetidin-3-yl)-1,2-dihydro-4(H)-3,1-benzoxazin-2-one] |  | inhibition at 10 µM (60 minutes, 22° C.): 54% |
| CC(=O)N(C)CCCOc1ccc(C(=O)N2CCC(N3C(=O)OCc4ccccc43)CC2)cc1 [Example 24, 1-(1-(4-(3-(N-Methyl(acetylamino))propoxy)benzoyl)piperidin-4-yl)-1,2-dihydro-4(H)-3,1-benzoxazin-2-one] | 0.55 |  |
| CCN(CC)CCS(=O)(=O)N1CCC(Oc2ccc(C(=O)N3CCC(N4C(=O)OCc5ccccc54)CC3)c(OC)c2)CC1 [Example 46, 1-(1-(4-(1-(Diethylaminoethylsulfonyl)-4-piperidinyloxy)-2-methoxybenzoyl)piperidin-4-yl)-1,2-dihydro-4(H)-3,1-benzoxazin-2-one] | 0.023 |  |
| COc1cc(OC)c(C(=O)N2CCC(N3C(=O)OCc4ccccc43)CC2)c(OC)c1 [Example 1] |  | inhibition at 10 µM (60 minutes, 22° C.): 61% |
| O=C(/C=C/c1ccccc1)N1CCC(N2C(=O)OCc3ccccc32)CC1 [Example 7, 1-(1-(Cinnamoyl)piperidin-4-yl)-1,2-dihydro-4(H)-3,1-benzoxazin-2-one] | 6.2 |  |
| COc1cc(C(=O)N2CCN(C(=O)OC(C)(C)C)CC2)ccc1C(=O)N1CCC(N2C(=O)OCc3ccccc32)CC1 [Example 39, 1-(1-(4-(4-(t-Butyloxycarbonyl)piperazin-1-ylcarbonyl)-2-methoxybenzoyl)piperidin-4-yl)-1,2-dihydro-4(H)-3,1-benzoxazin-2-one] |  | inhibition at 1 µM (60 minutes, 22° C.): 46% |
| COc1cc(OC2CCN(C(=O)OC(C)(C)C)CC2)ccc1C(=O)N1CCC(N2C(=O)COc3ccccc32)CC1 [Example 41, 4-(1-(4-(4-(1-t-Butyloxycarbonyl)piperidinyloxy)-2-methoxybenzoyl)piperidin-4-yl)-(2H)-1,4-benzoxazin-3(4H)-one] |  | inhibition at 1 µM (60 minutes, 22° C.): 42% |
| COc1cc(OCCCN2C(=O)CN(C)C2=O)ccc1C(=O)N1CCC(N2C(=O)OCc3ccccc32)CC1 [Example 22, 1-(1-(4-(3-(1-Methylimidazoline-2,4-dione-3-yl)propoxy)-2-methoxybenzoyl)piperidin-4-yl)-1,2-dihydro-4(H)-3,1-benzoxazin-2-one] | 0.26 |  |
| COc1ccc(C(=O)N2CCC(N3C(=O)Cc4ccccc43)CC2)c(OC)c1 [Example 55, 1-(1-(2,4-dimethoxybenzoyl)-4-piperidyl)indol-2-one] | 6.2 |  |
| COc1cc(OC2CCN(S(=O)(=O)CCCN(C)C3CC3)CC2)ccc1C(=O)N1CCC(N2C(=O)OCc3ccccc32)CC1 [Example 66, 1-(1-(4-(1-((3-N-Cyclopropyl-N-methylamino)propylsulfonyl)piperidin-4-yloxy)-2-methoxybenzoyl)piperidin-4-yl)-1,2-dihydro-4(H)-3,1-benzoxazin-2-one] | 0.025 |  |
| O=C(c1cc2ccccc2[nH]1)N1CCC(N2C(=O)OCc3ccccc32)CC1 [Example 4] |  | inhibition at 10 µM (60 minutes, 22° C.): 78% |
